Assay results reported in patent publication US20130096067A1, “DROSOPHILA TUMOR STEM CELL MODEL AND USES THEREOF” (priority 2011, published 2013).
Counter-ions that a name gives are not always drawn. Numbered stars: 1 amine (or outer) side, 2 acyl side, 3 side chain; on linkers, the order of the positions; unused ones are H or OH. Bridge positions count the residues as written; N and C are the ends. Square brackets hold non-standard residues; d marks the D form. Peptide text beside a SMILES is read from it. I, II: the chains in the order shown. Actinocin(9to1) = Cc1c2oc3c(C)ccc(C(=O)[*:1])c3nc-2c(C(=O)[*:2])c(N)c1=O; NMeV = CN[C@H](C(=O)O)C(C)C; Sar = CNCC(=O)O

How the values were obtained:
[1] = tested on: Raf-1^gof intestinal tumors; test: Luciferase screen of FDA-approved (NCI) drugs in 96-well plates, flies with Raf-1^gof intestinal tumors; format: in vivo, Drosophila; on Avg (3 + 6): test concentration or dose not given here; on Log2 (fold): test concentration or dose not given here
[2] = tested on: Raf-1^gof intestinal tumors; details: for Fold: Table 3 summary of hits, Screen ICCB, luciferase relative to DMSO, fed three consecutive days in vials; for Log2 (fold) (luciferase activity, log2 of the fold difference relative to DMSO controls) / Fold (luciferase activity, fold difference relative to DMSO controls): screen of 480 ICCB compounds in vials, compounds fed to flies with one-day old Raf-1^gof tumors, assessed three days later, esg-Gal4 luciferase; for Fold (luciferase activity, fold difference relative to DMSO controls): averaged from multiple wells; on Fold (luciferase activity, fold difference relative to DMSO controls): test concentration or dose not given here; on Log2 (fold) (luciferase activity, log2 of the fold difference relative to DMSO controls): test concentration or dose not given here
[3] = average of Day 3 and Day 6 fold
[4] = log2 of the Day 3 fold difference in luciferase relative to DMSO controls
[5] = luciferase activity relative to DMSO controls, single dose of drug for three days, 96-well plates
[6] = six-day protocol: single dose for three days, then another dose for three more days

| Compound | Avg (3 + 6) [1, 3] [fold] | Log2 (fold) [1, 4] | Day 3 Fold [1, 5] [fold] | Day 6 Fold [1, 6] [fold] | also measured |
| --- | --- | --- | --- | --- | --- |
| Cc1c2oc3c(C)ccc(C(=O)N[C@@H]4C(=O)N[C@H](C(C)C)C(=O)N5CCC[C@H]5C(=O)N(C)CC(=O)N(C)[C@@H](C(C)C)C(=O)O[C@@H]4C)c3nc-2c(C(=O)N[C@@H]2C(=O)N[C@H](C(C)C)C(=O)N3CCC[C@H]3C(=O)N(C)CC(=O)N(C)[C@@H](C(C)C)C(=O)O[C@@H]2C)c(N)c1=O [Dactinomycin] (I: T[dV]P[Sar][NMeV] / II: T[dV]P[Sar][NMeV]; ester I:1-I:C, II:1-II:C; linker I:N-II:N via Actinocin(9to1)) | 0.119 | −3.068 | 0.119 | – | Fold [2]: 0.438 fold; Log2 (fold) (luciferase activity, log2 of the fold difference relative to DMSO controls) [2]: −1.192; Fold (luciferase activity, fold difference relative to DMSO controls) [2]: 0.438 |
| COc1cc([C@@H]2c3cc4c(cc3[C@@H](O[C@@H]3O[C@@H]5CO[C@@H](C)O[C@H]5[C@H](O)[C@H]3O)[C@H]3COC(=O)[C@H]23)OCO4)cc(OC)c1O [Etoposide] | 0.817 | −0.134 | 0.911 | 0.722 | Log2 (fold) (luciferase activity, log2 of the fold difference relative to DMSO controls) [2]: −0.532; Fold (luciferase activity, fold difference relative to DMSO controls) [2]: 0.691 |
| S=c1nc[nH]c2nc[nH]c12 [Mercaptopurine] | 0.945 | 0.101 | 1.072 | 0.818 | – |
| COc1c2occc2cc2ccc(=O)oc12 [Methoxsalen] | 0.927 | −0.016 | 0.989 | 0.866 | – |
| CO[C@@]12[C@H](COC(N)=O)C3=C(C(=O)C(C)=C(N)C3=O)N1C[C@@H]1N[C@@H]12 [Mitomycin C] | 0.204 | – | – | – | Day 3 Fold ([1]; po, 72 h): 0.279 fold; Log2 (fold) ([1]; po, 72 h): −1.842; Fold [2]: 0.470 fold; Log2 (fold) (luciferase activity, log2 of the fold difference relative to DMSO controls) [2]: −1.088; Fold (luciferase activity, fold difference relative to DMSO controls) [2]: 0.470 |
| Clc1ccc(C(c2ccccc2Cl)C(Cl)Cl)cc1 (stereo not shown) [Mitotane] | – | – | – | – | Avg (3 + 6) ([1]; in vivo): 0.882 fold; Day 3 Fold ([1]; in vivo): 0.827 fold; Day 6 Fold ([1]; in vivo): 0.938 fold; Log2 (fold) ([1]; in vivo): −0.274 |
| O=C1c2c(O)ccc(O)c2C(=O)c2c(NCCNCCO)ccc(NCCNCCO)c21 [Mitoxantrone] | 0.883 | −0.303 | 0.810 | 0.955 | – |
| COc1nc(N)nc2c1ncn2[C@@H]1O[C@H](CO)[C@@H](O)[C@@H]1O [Nelarabine] | 1.194 | 0.166 | 1.122 | 1.266 | – |
| Cc1cn(-c2cc(NC(=O)c3ccc(C)c(Nc4nccc(-c5cccnc5)n4)c3)cc(C(F)(F)F)c2)cn1 [Nilotinib] | 0.804 | −0.615 | 0.653 | 0.956 | – |
| O=C1[O][Pt]2([NH][C@@H]3CCCC[C@H]3[NH]2)[O]C1=O [Oxaliplatin] | 1.082 | 0.296 | 1.227 | 0.936 | – |
| Nc1nc2[nH]cc(CCc3ccc(C(=O)N[C@@H](CCC(=O)O)C(=O)O)cc3)c2c(=O)[nH]1 [Pemetrexed] | 0.365 | −0.783 | 0.581 | 0.149 | – |
| OC[C@H]1O[C@@H](n2cnc3c2NC=NC[C@H]3O)C[C@@H]1O [Pentostatin] | 0.951 | – | – | – | Day 3 Fold ([1]; po, 72 h): 1.232 fold; Log2 (fold) ([1]; po, 72 h): 0.301 |
| O=C(CCBr)N1CCN(C(=O)CCBr)CC1 [Pipobroman] | 0.853 | −0.011 | 0.992 | 0.714 | – |
| CNNCc1ccc(C(=O)NC(C)C)cc1 [Procarbazine] | 1.119 | 0.470 | 1.385 | 0.854 | – |
| O=C(c1ccc(OCCN2CCCCC2)cc1)c1c(-c2ccc(O)cc2)sc2cc(O)ccc12 [Raloxifene HCl] | 1.100 | 0.337 | 1.263 | 0.936 | – |
| CO[C@H]1C[C@@H]2CC[C@@H](C)[C@@](O)(O2)C(=O)C(=O)N2CCCC[C@H]2C(=O)O[C@H]([C@H](C)C[C@@H]2CC[C@@H](O)[C@H](OC)C2)CC(=O)[C@H](C)/C=C(\C)[C@@H](O)[C@@H](OC)C(=O)[C@H](C)C[C@H](C)/C=C/C=C/C=C/1C [Rapamycin] | 0.369 | −1.216 | 0.431 | 0.308 | Fold [2]: 0.429 fold; Log2 (fold) (luciferase activity, log2 of the fold difference relative to DMSO controls) [2]: −1.220; Fold (luciferase activity, fold difference relative to DMSO controls) [2]: 0.429 |
| CNC(=O)c1cc(Oc2ccc(NC(=O)Nc3ccc(Cl)c(C(F)(F)F)c3)cc2)ccn1 [Sorafenib] | – | – | – | – | Avg (3 + 6) ([1]; in vivo): 1.046 fold; Day 3 Fold ([1]; in vivo): 0.752 fold; Day 6 Fold ([1]; in vivo): 1.339 fold; Log2 (fold) ([1]; in vivo): −0.410 |
| CN(N=O)C(=O)N[C@@H](C=O)[C@@H](O)[C@H](O)[C@H](O)CO [Streptozocin] | – | – | – | – | Avg (3 + 6) ([1]; in vivo): 0.943 fold; Day 3 Fold ([1]; in vivo): 1.030 fold; Day 6 Fold ([1]; in vivo): 0.856 fold; Log2 (fold) ([1]; in vivo): 0.043 |

| Compound | Avg (3 + 6) [1, 3] [fold] | Log2 (fold) [1, 4] | Day 3 Fold [1, 5] [fold] | Day 6 Fold [1, 6] [fold] | also measured |
| --- | --- | --- | --- | --- | --- |
| CCN(CC)CCNC(=O)c1c(C)[nH]c(/C=C2\C(=O)Nc3ccc(F)cc32)c1C [Sunitinib] | 0.816 | −0.243 | 0.845 | 0.788 | – |
| CC/C(=C(\c1ccccc1)c1ccc(OCCN(C)C)cc1)c1ccccc1 [Tamoxifen citrate] | 0.919 | −0.046 | 0.968 | 0.869 | – |
| Cn1nnc2c(C(N)=O)ncn2c1=O [Temozolomide] | 1.138 | −0.032 | 0.978 | 1.298 | – |
| COc1cc([C@@H]2c3cc4c(cc3[C@@H](O[C@@H]3O[C@@H]5CO[C@@H](c6cccs6)O[C@H]5[C@H](O)[C@H]3O)[C@H]3COC(=O)[C@H]23)OCO4)cc(OC)c1O [Teniposide] | 0.634 | −0.679 | 0.625 | 0.642 | – |
| Nc1nc2nc[nH]c2c(=S)[nH]1 [Thioguanine] | 1.392 | 0.495 | 1.409 | 1.375 | – |
| S=P(N1CC1)(N1CC1)N1CC1 [Thiotepa] | – | – | – | – | Avg (3 + 6) ([1]; in vivo): 0.344 fold; Day 3 Fold ([1]; in vivo): 0.353 fold; Day 6 Fold ([1]; in vivo): 0.335 fold; Log2 (fold) ([1]; in vivo): −1.501 |
| CC[C@@]1(O)C(=O)OCc2c1cc1n(c2=O)Cc2cc3c(CN(C)C)c(O)ccc3nc2-1 [Topotecan HCl] | 0.233 | −1.600 | 0.330 | 0.137 | – |
| CC1=C(/C=C/C(C)=C/C=C/C(C)=C/C(=O)O)C(C)(C)CCC1 [Tretinoin] | 0.871 | −0.040 | 0.972 | 0.769 | – |
| C1CN1c1nc(N2CC2)nc(N2CC2)n1 [Triethylenemelamine (TEM), Triethylenemelamine] | – | – | – | – | Avg (3 + 6) ([1]; in vivo): 0.301 fold; Day 3 Fold ([1]; in vivo): 0.349 fold; Day 6 Fold ([1]; in vivo): 0.253 fold; Log2 (fold) ([1]; in vivo): −1.519 |
| Oc1ncc(N(CCCl)CCCl)c(O)n1 [Uracil mustard] | – | – | – | – | Avg (3 + 6) ([1]; in vivo): 0.869 fold; Day 3 Fold ([1]; in vivo): 0.966 fold; Day 6 Fold ([1]; in vivo): 0.773 fold; Log2 (fold) ([1]; in vivo): −0.050 |
| CCCCC(=O)OCC(=O)[C@]1(O)Cc2c(O)c3c(c(O)c2[C@@H](O[C@H]2C[C@H](NC(=O)C(F)(F)F)[C@H](O)[C@H](C)O2)C1)C(=O)c1c(OC)cccc1C3=O [Valrubicin] | 0.778 | −0.190 | 0.876 | 0.679 | – |
| CC[C@]1(O)C[C@H]2CN(CCc3c([nH]c4ccccc34)[C@@](C(=O)OC)(c3cc4c(cc3OC)N(C=O)[C@H]3[C@@](O)(C(=O)OC)[C@H](OC(C)=O)[C@]5(CC)C=CCN6CC[C@]43[C@@H]65)C2)C1 [Vincristine sulfate] | 0.314 | −2.100 | 0.233 | 0.394 | – |
| CCC1=C[C@@H]2CN(C1)Cc1c([nH]c3ccccc13)[C@@](C(=O)OC)(c1cc3c(cc1OC)N(C)[C@H]1[C@@](O)(C(=O)OC)[C@H](OC(C)=O)[C@]4(CC)C=CCN5CC[C@]31[C@@H]54)C2 [Vinorelbine tartrate] | 0.761 | −0.190 | 0.877 | 0.645 | – |
| O=C(CCCCCCC(=O)Nc1ccccc1)NO [Vorinostat] | 0.749 | −0.703 | 0.614 | 0.883 | – |
| O=P(O)(O)C(O)(Cn1ccnc1)P(=O)(O)O [Zolendronic acid] | 0.999 | −0.115 | 0.923 | 1.076 | – |
| Arsenic trioxide | 0.981 | −0.074 | 0.950 | 1.012 | – |
| Estramustine disodium phosphate | – | – | – | – | Avg (3 + 6) ([1]; in vivo): 0.922 fold; Day 3 Fold ([1]; in vivo): 0.971 fold; Day 6 Fold ([1]; in vivo): 0.872 fold; Log2 (fold) ([1]; in vivo): −0.042 |
